Results as given in patent US9120816B2, “Oxanorbornadiene derivatives and their anticancer activities” (priority 2012, dated 2015).
Where two headings read alike, the source gives them in different places.

Experiments:
[1] = test system: MCF-7 (human breast adenocarcinoma); experiment: MTT cytotoxicity assay, MCF-7; format: cell-based; settings: for IC50: Homo sapiens, MCF7
Experimental: (§1) Cytotoxic activities of all compounds are evaluated by MTT assay using KYSE-150 (human oesophagus carcinoma), MKN-45 (human gastric aednocarcinoma), DLD-1 (human colorectal carcinoma cell line), HepG2 (human hepatocellular carcinoma), MCF-7 (human breast adenocarcinoma), and MDA-MB-231 (human breast adenocarcinoma). Canthatidin is used as positive control.
(§2) Cells are seeded in a 96-well plate (4×10^3 cells/well) and allowed to attach overnight.
(§3) After the recovery, cells are treated with 1.56 μM, 3.125 μM, 6.25 μM, 12.5 μM, 25 μM, 50 μM of each of the compounds in culture medium for 48 hrs. […] Finally, the culture medium is removed and 200 μL of DMSO are added to each well to dissolve the purple formazan crystals.

[2] = test system: MKN-45 (human gastric aednocarcinoma); experiment: MTT cytotoxicity assay, MKN-45; format: cell-based; settings: 48 hrs treatment
Experimental: as §1, §2, §3

[3] = test system: KYSE-150 (human oesophagus carcinoma); experiment: MTT cytotoxicity assay, KYSE-150; format: cell-based; settings: for IC50: Homo sapiens, KYSE-150
Experimental: as §1, §2, §3

[4] = test system: DLD-1 (human colorectal carcinoma cell line); experiment: MTT cytotoxicity assay, DLD-1; format: cell-based; settings: for IC50: Homo sapiens, DLD-1
Experimental: as §1, §2, §3

[5] = test system: MDA-MB-231 (human breast adenocarcinoma); experiment: MTT cytotoxicity assay, MDA-MB-231; format: cell-based; settings: for IC50: Homo sapiens, MDA-MB-231
Experimental: as §1, §2, §3

[6] = test system: HepG2 (human hepatocellular carcinoma); experiment: MTT cytotoxicity assay, HepG2; format: cell-based; settings: 48 hrs treatment
Experimental: as §1, §2, §3

KYSE-150 cells = experiment: Wound healing assay; format: cell-based, human; settings: for Cell migration into the wound: KYSE-150 monolayer, 72 h, 1 and 2.5 μM/mL; for Viability of KYSE-150 cells as compared to controls: highest concentration of 1 μM/mL and 2.5 μM/mL
Experimental: In addition, wound healing assay is used to test whether the compounds 1, 2 and 3 could affect cell motility.
A wound healing assay is performed as follows: KYESE-150 cells are seeded in each well of the 12-well plate at 50% confluence in completed medium. After 24 hrs seeding, the monolayer is wounded by scoring with a sterile plastic tip (1 mL), then washed several times with medium to remove cell debris and then incubated in conditioned medium in the absence or presence of the tested compounds for various periods of time up to 72 h. […] Cell migration into the wound surface is monitored by Olympus IX71 microscopy and digitally photographed.

[7] = MTT, 48 hrs treatment, read-out: Cytotoxicity IC50, MCF-7
[8] = MTT, 48 hrs treatment, read-out: Cytotoxicity IC50, KYSE-150
[9] = MTT, 48 hrs treatment, read-out: Cytotoxicity IC50, DLD-1
[10] = MTT, 48 hrs treatment, read-out: Cytotoxicity IC50, MDA-MB-231

Compound	IC50 [1, 7] [µM]	IC50 [2] [µM]	IC50 [3, 8] [µM]	IC50 [4, 9] [µM]	IC50 [5, 10] [µM]	IC50 [6] [µM]	Cell migration into the wound (KYSE-150 cells)	Viability of KYSE-150 cells as compared to controls (KYSE-150 cells)	Growth inhibition of DLD-1 cells as compared to positive control ([4]; compared with canthatidin)	Growth inhibition of MCF-7 cells as compared to positive control ([1]; compared with canthatidin)	Growth inhibition of KYSE-150 cells as compared to positive control ([3]; compared with canthatidin)	Growth inhibition of MDA-MB-231 cells as compared to positive control ([5]; compared with canthatidin)	IC50 ([1]; summary statement in conclusion, read-out: IC50 of cell growth inhibition, MCF-7) [µM]	IC50 ([3]; summary statement in conclusion, read-out: IC50 of cell growth inhibition, KYSE-150) [µM]	IC50 ([4]; summary statement in conclusion, read-out: IC50 of cell growth inhibition, DLD-1) [µM]	IC50 ([5]; summary statement in conclusion, read-out: IC50 of cell growth inhibition, MDA-MB-231) [µM]
C[C@@]12C(=O)OC(=O)[C@]1(C)[C@H]1CC[C@@H]2O1 [Cantharidin, reference compound]	13	4.52	3.1	13.9	4.69	3.1	–	–	–	–	–	–	–	–	–	–
COc1ccc(C#CC2CC3OC2C(C(=O)OC(C)(C)C)=C3C(=O)OC(C)(C)C)cc1 (centres unmarked) [Compound 3]	33.4	6.31	5.4	3.77	50.2	8.4	do not migrate into the wound	do not alter the viability	growth-inhibiting effects	–	–	–	–	–	–	–
CCOC(=O)C1=C(C(=O)OCC)C2OC1CC2C#Cc1ccc(OC)cc1 (centres unmarked) [Compound 2]	6.39	26	1.4	1.74	2.81	15.7	do not migrate into the wound	do not alter the viability	–	growth-inhibiting effects	growth-inhibiting effects	growth-inhibiting effects	–	–	–	–
COC(=O)C1=C(C(=O)OC)C2OC1CC2C#Cc1ccc(OC)cc1 (centres unmarked) [Compound 1]	2.46	21.3	1.82	6	2.3	6.2	do not migrate into the wound	do not alter the viability	–	–	–	–	< 10	< 10	< 10	< 10
